Results published in patent publication US20260159512A1, “BCAT2 INHIBITORS” (AGIOS PHARMACEUTICALS, INC., priority 2021, published 2026).

Tests used:
BCAT2 = target: T1, BCAT2 (Homo sapiens, UniProt O15382); assay: BCAT2 in vitro enzyme inhibition assay (resazurin/diaphorase-coupled fluorescence); assay type: biochemical; conditions: average where tested multiple times
T1 sequence (O15382 28-392): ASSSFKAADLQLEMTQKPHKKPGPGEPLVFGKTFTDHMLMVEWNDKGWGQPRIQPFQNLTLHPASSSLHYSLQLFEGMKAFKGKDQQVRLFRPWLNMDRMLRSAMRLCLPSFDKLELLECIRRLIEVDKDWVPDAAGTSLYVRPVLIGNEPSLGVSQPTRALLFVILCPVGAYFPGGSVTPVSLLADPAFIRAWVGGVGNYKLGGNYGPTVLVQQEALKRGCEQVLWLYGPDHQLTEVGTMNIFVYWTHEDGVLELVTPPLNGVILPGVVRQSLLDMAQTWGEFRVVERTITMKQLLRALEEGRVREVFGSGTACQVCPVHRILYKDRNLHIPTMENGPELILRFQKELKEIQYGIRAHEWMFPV
In short: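 Coupled fluorescence readout: glutamate formed from L-leucine/α-ketoglutarate transamination drives GDH/NAD/diaphorase reduction of resazurin (Ex 540/Em 590). Human BCAT2 was first exposed 1 h at room temperature to compound, top final 100 μM in 3-fold, 10-point series; substrate reaction ran 1 h before SDS quench, in technical duplicate with DMSO max and enzyme-free min controls.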

hBCAT1 = target: T2, hBCAT1 (Homo sapiens, UniProt P54687); assay: BCAT1 in vitro enzyme inhibition assay (resazurin/diaphorase-coupled fluorescence); assay type: biochemical; conditions: average where tested multiple times
T2 sequence (P54687 1-386): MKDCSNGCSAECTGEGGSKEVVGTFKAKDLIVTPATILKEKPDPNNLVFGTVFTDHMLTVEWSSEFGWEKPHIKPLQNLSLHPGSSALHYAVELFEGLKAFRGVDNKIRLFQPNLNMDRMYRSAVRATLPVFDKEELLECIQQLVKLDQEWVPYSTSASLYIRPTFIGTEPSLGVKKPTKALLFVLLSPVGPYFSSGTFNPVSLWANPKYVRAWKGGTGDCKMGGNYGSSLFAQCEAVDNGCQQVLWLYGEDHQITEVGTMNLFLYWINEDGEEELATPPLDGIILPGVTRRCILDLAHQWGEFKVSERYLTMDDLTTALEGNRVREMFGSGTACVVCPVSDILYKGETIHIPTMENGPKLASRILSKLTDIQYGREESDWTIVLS
Method: BCAT1 In Vitro Enzyme Inhibition Assay
Meanwhile the Substrate Mix was prepared.
Test Compound Preparation:
Test compounds were prepared at 50× final concentration in DMSO, 1 to 3 dilutions were made for 10 points. The compounds were added to the assay as a 1 to 50 dilution (1 μL in 50 μL) to yield a top assay final concentration of 100 μM, decreasing 3-fold for 10 points. […] All tests were performed in technical duplicate.
Where a compound was tested multiple times, the average value of the tests is reported.

Row | Compound | IC50 (BCAT2) [nM] | IC50 (hBCAT1) [nM]
1 | O=C(N[C@H]1CCC[C@@H](n2c(-c3ccccn3)nc3cc(-n4cncn4)ncc32)C1)c1ccc(Br)s1 [Example 150, 5-bromo-N-((1S,3R)-3-(2-(pyridin-2-yl)-6-(1H-1,2,4-triazol-1-yl)-3H-imidazo[4,5-c]pyridin-3-yl)cyclohexyl)thiophene-2-carboxamide] | 500 to 1000 | > 5000
2 | CC(=O)N1CC(NC(=O)c2ccc(Br)s2)CC(n2c(-c3ccccn3)nc3cc(-c4nnco4)ccc32)C1 (centres unmarked) [Example 282, N-(5-(5-(1,3,4-oxadiazol-2-yl)-2-(pyridin-2-yl)-1H-benzo[d]imidazol-1-yl)-1-acetylpiperidin-3-yl)-5-bromothiophene-2-carboxamide] | 100 to 500 | > 5000
3 | C[C@@H]1CCCN1c1cc2c(cn1)nc(-c1ccccc1F)n2[C@@H]1CCC[C@H](NC(=O)c2ncc(Cl)s2)C1 [Example 195, 5-chloro-N-((1S,3R)-3-(2-(2-fluorophenyl)-6-((R)-2-methylpyrrolidin-1-yl)-1H-imidazo[4,5-c]pyridin-1-yl)cyclohexyl)thiazole-2-carboxamide] | 100 to 500 | 1000 to 5000
4 | O=C(NC1COCC(n2c(-c3ccccn3)nc3cnc(-n4ccnn4)cc32)C1)c1ncc(C(F)F)s1 (single isomer, unassigned) [Example 146, 5-(difluoromethyl)-N-(5-(2-(pyridin-2-yl)-6-(1H-1,2,3-triazol-1-yl)-1H-imidazo[4,5-c]pyridin-1-yl)tetrahydro-2H-pyran-3-yl)thiazole-2-carboxamide] | > 1000 | > 5000
5 | CC(C)Cc1nc2cnc(-c3ccccc3F)cc2n1[C@@H]1CCC[C@H](NC(=O)c2ncc(Cl)s2)C1 [Example 206, 5-chloro-N-((1S,3R)-3-(6-(2-fluorophenyl)-2-isobutyl-1H-imidazo[4,5-c]pyridin-1-yl)cyclohexyl)thiazole-2-carboxamide] | 100 to 500 | > 5000
6 | CC(C)Cc1nc2cnc(-c3nc[nH]n3)cc2n1[C@@H]1C[C@H](NC(=O)c2ccc(Cl)s2)CC(F)(F)C1 (stereo in doubt) [Example 454, 5-chloro-N-((1S,5R)-3,3-difluoro-5-(2-isobutyl-6-(1H-1,2,4-triazol-3-yl)-1H-imidazo[4,5-c]pyridin-1-yl)cyclohexyl)thiophene-2-carboxamide] | ≤ 100 | < 500
7 | O=C(NC1CCCC(n2c(-c3ccccn3)nc3cc(-c4nnco4)ncc32)C1)c1ccc(Br)s1 (centres unmarked) [Example 157, N-(3-(6-(1,3,4-oxadiazol-2-yl)-2-(pyridin-2-yl)-3H-imidazo[4,5-c]pyridin-3-yl)cyclohexyl)-5-bromothiophene-2-carboxamide] | ≤ 100 | 1000 to 5000
8 | CNC(=O)c1ccc2c(c1)nc(-c1ccccn1)n2C1CC(NC(=O)c2ccc(Br)s2)CN(C(N)=O)C1 (centres unmarked) [Example 293, 1-(5-(5-bromothiophene-2-carboxamido)-1-carbamoylpiperidin-3-yl)-N-methyl-2-(pyridin-2-yl)-1H-benzo[d]imidazole-5-carboxamide] | ≤ 100 | 1000 to 5000
9 | O=C(N[C@H]1CCC[C@@H](n2c(-c3ccccc3F)nc3cnc(-n4cncn4)cc32)C1)c1ccc(Br)s1 [Example 17, 5-bromo-N-((1S,3R)-3-(2-(2-fluorophenyl)-6-(1H-1,2,4-triazol-1-yl)-1H-imidazo[4,5-c]pyridin-1-yl)cyclohexyl)thiophene-2-carboxamide] | ≤ 100 | < 500
10 | O=C(N[C@H]1CCC[C@@H](n2c(-c3ccccn3)nc3cc(-c4cnco4)ncc32)C1)c1ccc(Br)s1 [Example 154, 5-bromo-N-((1S,3R)-3-(6-(oxazol-5-yl)-2-(pyridin-2-yl)-3H-imidazo[4,5-c]pyridin-3-yl)cyclohexyl)thiophene-2-carboxamide] | 500 to 1000 | > 5000
